Where “and” joins values, the source holds several entries; their conditions need not be identical. Identical values can stand only once. Like-named read-outs stand apart in the source and are kept apart here. Values belong to the molecule of their own block, whether it stands above or below them.
Columns and labels:
[1] = Solubility of ICG-NHS (no dPEG); format: physicochemical; details: 10% DMAC (our work)
Description: Soluble in 10% DMSO (lit) or DMAC (our work)

[2] = Behaviour of unreacted reagent on spin columns in PBS (aggregation); format: physicochemical; details: no MAG control
Description: Reacted with MAG but couldn't separate unreacted reagent on spin columns in PBS

[3] = 10% DMSO (lit); cited from earlier work
[4] = Conjugation of ICG reagents with IgG: maximal ICG incorporation without losing the protein; format: physicochemical; details: reaction with MAG in 10% DMAC
Description: The maximal number of ICGs using this reagent that can be incorporated into an IgG without losing the protein is 4-5 ICG/IgG (FIG. 18). A similar number of ICGs from ICG-NHS, the reagent without dPEG, can be substituted into IgG (FIG. 19).
c. Conjugation of ICG-dPEG12-NHS with MAG (Mouse Anti-Goat IgG Antibody)
MAG reacted with different concentrations of ICG-dPEG12-NHS in 10% DMAC
Product purified over two G50 spin columns in PBS
[IgG] and ICG/IgG molar ratios determined from A (770 nm) and A (280) nm
Lose most of protein when [ICG-dPEG12-NHS] in the reaction is ≧0.2 mM
Highest incorporation: ICG/IgG˜5

[5] = biological target: Human Serum Albumin (HSA) (Homo sapiens, UniProt P02768); experiment: Fluorescence increase on addition to 4% HSA solution (HSA complex formation); format: binding
Protocol: ICG is a hydrophobic molecule that forms a tight complex with Human Serum Albumin (HSA). The fluorescence of ICG increased ˜10 fold, as expected, when it was added to a 4% HSA solution. When ICG is conjugated to a protein, it loses its ability to form tight HAS complexes, as confirmed in our experiments where the fluorescence of ICG-IgG (no dPEG) increased by only a factor of ˜2 when added to 4% HSA. We hypothesized that ICG might still be able to bind to HSA when it was bound to IgG through a dPEG12 linker.

Sequence of Human Serum Albumin (HSA) (P02768 25-609): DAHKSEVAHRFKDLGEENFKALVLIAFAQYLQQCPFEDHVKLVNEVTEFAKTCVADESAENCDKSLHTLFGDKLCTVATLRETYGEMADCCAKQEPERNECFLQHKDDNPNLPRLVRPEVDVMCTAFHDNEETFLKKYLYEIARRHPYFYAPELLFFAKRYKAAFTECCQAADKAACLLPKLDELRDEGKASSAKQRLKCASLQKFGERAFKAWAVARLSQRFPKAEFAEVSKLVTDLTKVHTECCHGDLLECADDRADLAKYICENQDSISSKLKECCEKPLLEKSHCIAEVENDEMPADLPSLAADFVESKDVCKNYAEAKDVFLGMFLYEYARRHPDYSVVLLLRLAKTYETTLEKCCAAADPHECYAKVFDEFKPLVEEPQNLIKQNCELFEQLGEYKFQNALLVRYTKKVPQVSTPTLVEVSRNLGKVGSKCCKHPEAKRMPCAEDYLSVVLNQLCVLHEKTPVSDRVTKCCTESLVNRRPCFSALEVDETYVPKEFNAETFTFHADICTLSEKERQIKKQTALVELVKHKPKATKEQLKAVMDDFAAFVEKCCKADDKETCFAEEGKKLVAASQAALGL

- solubility [1]: Soluble
- aggregation of unreacted reagent [2]: apparently forms aggregates
Molecule: CC1(C)C(/C=C/C=C/C=C/C=C2\N(CCCCS(=O)(=O)[O-])c3ccc4ccccc4c3C2(C)C)=[N+](CCCCCC(=O)ON2C(=O)CCC2=O)c2ccc3ccccc3c21 [ICG-NHS]
- solubility [3]: Soluble

- maximal number of ICGs that can be incorporated into an IgG without losing the protein / highest incorporation [4]: 4-5 ICG/IgG and ~5 ICG/IgG
Molecule: dPEG12-NHS ester)-1,1-dimethyl-benzoindoliden-hepta-1,3,5-trienyl-(1,1-dimethyl-benzoindolium butane sulfonate) [ICG-dPEG12-NHS]

- increase of fluorescence when added to 4% HSA [5]: ~10 fold
Molecule: CC1(C)C(/C=C/C=C/C=C/C=C2\N(CCCCS(=O)(=O)[O-])c3ccc4ccccc4c3C2(C)C)=[N+](CCCCS(=O)(=O)[O-])c2ccc3ccccc3c21.[Na+] [ICG]

— patent US20150073154A1, “Discrete PEG Based Dyes” (EquIP, LLC, priority 2013, published 2015)
